How the values were obtained:
Polyphenol oxidase 2 = target: T1, Polyphenol oxidase 2 (Agaricus bisporus, UniProt O42713); assay: Enzyme Assay; conditions: pH 6.8; 25 °C
T1 sequence (O42713 whole entry): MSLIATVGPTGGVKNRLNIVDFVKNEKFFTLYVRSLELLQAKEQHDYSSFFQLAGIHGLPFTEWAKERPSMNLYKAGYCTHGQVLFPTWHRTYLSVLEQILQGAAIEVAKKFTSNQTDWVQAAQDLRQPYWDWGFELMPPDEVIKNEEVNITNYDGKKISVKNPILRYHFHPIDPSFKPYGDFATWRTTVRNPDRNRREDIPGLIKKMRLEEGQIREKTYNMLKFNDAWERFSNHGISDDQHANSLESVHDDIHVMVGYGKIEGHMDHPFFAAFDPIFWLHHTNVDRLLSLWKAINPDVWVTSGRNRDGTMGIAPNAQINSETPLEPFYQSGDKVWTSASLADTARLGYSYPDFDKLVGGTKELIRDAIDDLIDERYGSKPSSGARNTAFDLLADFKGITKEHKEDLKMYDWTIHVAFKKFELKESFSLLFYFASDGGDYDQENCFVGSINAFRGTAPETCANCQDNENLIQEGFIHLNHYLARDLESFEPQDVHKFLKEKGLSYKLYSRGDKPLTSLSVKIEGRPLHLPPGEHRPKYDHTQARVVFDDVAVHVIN

Tyrosinase = target: T2, Tyrosinase (Mus musculus, UniProt P11344); assay: Enzyme Assay; conditions: pH 6.8; 25 °C
T2 sequence (P11344 whole entry): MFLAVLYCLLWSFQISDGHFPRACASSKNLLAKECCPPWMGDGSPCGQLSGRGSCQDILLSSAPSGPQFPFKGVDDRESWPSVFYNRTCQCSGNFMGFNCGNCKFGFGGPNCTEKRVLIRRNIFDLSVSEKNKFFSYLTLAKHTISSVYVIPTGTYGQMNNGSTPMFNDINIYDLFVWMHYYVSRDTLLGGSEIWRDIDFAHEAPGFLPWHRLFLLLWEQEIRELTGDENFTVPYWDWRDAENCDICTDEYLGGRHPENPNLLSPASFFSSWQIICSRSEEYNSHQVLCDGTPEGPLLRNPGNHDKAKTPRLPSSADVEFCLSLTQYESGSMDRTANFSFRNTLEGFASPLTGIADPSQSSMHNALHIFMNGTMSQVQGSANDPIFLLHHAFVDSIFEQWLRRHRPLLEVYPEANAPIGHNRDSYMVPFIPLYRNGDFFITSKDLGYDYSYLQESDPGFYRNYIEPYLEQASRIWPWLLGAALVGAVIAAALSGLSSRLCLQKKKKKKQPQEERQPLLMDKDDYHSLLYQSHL

| Structure (SMILES) | IC50 (Polyphenol oxidase 2) [µM] | IC50 (Tyrosinase) [µM] |
| --- | --- | --- |
| OCc1ccc(O)cc1 [4-Hydroxybenzyl alcohol] | 350 | 650 |
| COc1ccc(/C=C2/SC(=S)N(CCC(=O)O)C2=O)cc1 [3-[(5E)-5-[(4-methoxyphenyl)methylidene]-4-oxo-2-sulfanylidene-3-thiazolidinyl]propanoic acid] | 894 | 2390 |
| COc1cc(-c2nc(S(=O)(=O)c3ccc(C)cc3)c(N3CCOCC3)o2)cc(OC)c1OC [4-[4-(4-methylphenyl)sulfonyl-2-(3,4,5-trimethoxyphenyl)-5-oxazolyl]morpholine] | 402 | 952 |

Stronger by IC50 (Polyphenol oxidase 2), values ahead:

| IC50 (Polyphenol oxidase 2) [µM] | IC50 (Tyrosinase) [µM] | Structure (SMILES) |
| --- | --- | --- |
| 87.6 | 188 | Oc1ccc(O)cc1 |
| 296 | – | OCC1OC(Oc2ccc(O)cc2)C(O)C(O)C1O (centres undefined) [2-Hydroxymethyl-6-(4-hydroxy-phenoxy)-tetrahydro-pyran-3,4,5-triol] |

Source: BindingDB's records for doi:10.1080/14756360701654894 (National Tsing Hua University, 2008)
